In paper PMC8067721 (Pharmaceutics, 2021):

Assays:
[1] = tested on: NT receptors (NTRS1, NTRS2, NTRS3) on HT-29 cells; experiment: In vitro specific binding / competition assay with all NT receptors blocked; design: species or system human; details: antagonists applied together: 70 nM NTRC 824, 30 nM SR 48692, 10 nM SR 142948, […]; uptake profile almost linear
Description: In order to evaluate the specific binding due to the exclusive interaction of the peptide with its receptors, a competition assay was performed. This assay in which all NT receptors are blocked before incubating the labelled peptide is intended to highlight non-specific binding of NT to the cells. […] For this assessment, three different NT receptors antagonists were used, each having a preferential increased affinity for one of the receptors, allowing the blocking of all NTRs at the same time:
Afterwards, the medium containing unbound antagonists was removed and the cells were washed with 2 mL of fresh DMEM medium.

HT-29 cells = tested on: HT-29 cells; design: method as in PMID 9023294; details: cited from earlier work
NTRS2 = tested on: NTRS2; design: method as in PMID 25157640; details: cited from earlier work

Compound | effect of antagonists on ^68Ga-DOTA-NT binding to colon HT-29 tumour cells [1] | inhibition of [^125I]ITyr^3-NT specific binding to HT-29 cells (HT-29 cells) | selectivity for NTRS2 over NTRS1 (NTRS2) [fold]
2-[[5-(2,6-dimethoxyphenyl)-1-(4-(N-(3-dimethylaminopropyl)-N-methylcabamoyl)-2-isopropylphenyl)-1H-pyrazole-3-carbonyl]amino]adamantane-2-carboxylic acid [SR 142948] | inhibit | completely inhibits | –
Cc1ccc(S(=O)(=O)Nc2ccc3c(c2)c(C(=O)C(F)(F)F)cn3CC(=O)N[C@@H](CC(C)C)C(=O)O)cc1 [NTRC 824, N-[2-[5-[[(4-Methylphenyl)sulfonyl]amino]-3-(trifluoroacetyl)-1H-indol-1-yl]acetyl]-L-leucine] | inhibit | – | 150
COc1cccc(OC)c1-c1cc(C(=O)NC2(C(=O)O)C3CC4CC(C3)CC2C4)nn1-c1ccnc2cc(Cl)ccc12 (centres unmarked) [SR 48692, 2-[[1-(7-chloroquinolin-4-yl)-5-(2,6-dimethoxyphenyl)-1H-pyrazol-3-carbonyl]amino] adamantane-2-carboxylic acid] | inhibit | – | –
